We go through 67 compounds from the SangsterLogP compilation.

For orientation: logD means lipophilicity at a set pH, counting ionised and neutral species. A low value points to lower lipophilicity.

One data set is described as follows: method code SF, from DOI: 10.1016/j.ejps.2012.10.019, PMID: 23131797. As to conditions: pH 2.0.
The compound `Cc1ccc(C(=O)NCCc2ccc3c(c2)OCCO3)cc1[N+](=O)[O-]` yielded a logD of 3.28.

The same data set, now with this note: pH 5.0.
As for `Cc1ccc(-n2c(=O)c3cc4c(=O)n(-c5ccc(C)c(C)c5)c(=O)c4cc3c2=O)cc1C`, the log distribution coefficient (logD) amounted to 4.83.
On the same count and under the same terms, to `CCCS(=O)(=O)c1c(S(=O)(=O)CCC)c2cnccn2c1C(=O)c1ccc(C)cc1` belongs 3.93; to `Cc1ccc(SCC(=O)NCc2cccc(CNC(=O)CSc3ccc(C)cc3)c2)cc1`, 5.08; to `CCc1nc2sc(C#N)c(N)n2c(=O)c1C#N`, 2.09.
With `COc1ccc(OCC(=O)N2CCN(C(=O)c3ccco3)CC2)cc1`, the pH-dependent lipophilicity (logD) came out at 2.76.
The same measure, in the same setting: the figure for `COc1nc(Cl)nc(Nc2ccccc2)n1` is 2.89; for `c1ccc(-n2nnnc2OCCOc2nnnn2-c2ccccc2)cc1` it is 3.72.
On the same count and under the same terms, the figure for `CCOC(=O)c1[nH]c2c(c1C)C(Cl)=C(C=O)CC2` is 3.92; for `O=C(COc1ccc2ccccc2c1)N1CCN(S(=O)(=O)c2ccc3c(c2)OCCO3)CC1` it is 4.47; for `COc1ccc(CCNC(=O)CSc2nc3c(c(=O)n(C)c(=O)n3C)n2Cc2ccccc2F)cc1OC` it is 4.
The same measure, in the same setting: the figure for `O=C1CC(c2cccc([N+](=O)[O-])c2)CC2=C1C(c1ccco1)N(C(=O)C(F)(F)F)c1ccccc1N2` (configuration not stated) is 4.68; for `NC(=O)C1CCN(C(=O)c2ccc3c(=O)n(Cc4ccco4)c(SCC(=O)c4ccccc4)nc3c2)CC1` it is 5.31.
In the case of `Cc1cc(C(=O)COC(=O)c2oc3ccccc3c2COC(C)C)c(C)n1-c1c(C)n(C)n(-c2ccccc2)c1=O`, the logD worked out at 5.39.
Consider `O=[N+]([O-])c1cccc(-c2noc(CC3CCCCC3)n2)c1`, for which the logD came out at 5.17.
As for `N#CCSc1nc2ccccc2c(=O)n1-c1ccc(OC(F)F)cc1`, the logD was determined as 4.17.
`CCOC(=O)N1CCN(C(=O)/C=C/c2ccc(Cl)c(Cl)c2)CC1` returned a logD of 4.34.
Same read-out and setting: the figure for `COc1ccc2c(C)c(C)c(=O)oc2c1C` is 3.45; for `Cn1ncc(Br)c1C(=O)N1CCCCCC1` it is 2.63.
Take `CC(C)NC(=O)COC(=O)c1ccc(S(=O)(=O)N2CCCCCC2)cc1`: the logD came out at 3.78.
Regarding `CCOc1ccc(NC=C(S(=O)(=O)c2ccc(C)cc2)S(=O)(=O)c2ccc(C)cc2)cc1`, the logD is 5.64.
On the same count and under the same terms, the figure for `NC(=O)c1cc(NC(=O)c2cc(C(F)(F)F)cc(C(F)(F)F)c2)cc(C(N)=O)c1` is 3.87; for `FC(F)(F)c1ccc(-n2cc3ccccc3n2)cc1` it is 4.42; for `CC(=O)Oc1cccc(N2C(=O)c3ccc(C(=O)c4ccc5c(c4)C(=O)N(c4cccc(OC(C)=O)c4)C5=O)cc3C2=O)c1` it is 5.13.

The data set is the same for the next values; noted with them: pH 6.5.
The compound `CCN(CC)C(=O)c1sc(NC(=O)c2cc(OC)cc(OC)c2)c(C(=O)OC)c1C` registered a logD of 5.47.
As for `CC(=O)Nc1nc2cc3sc(NC(C)=O)nc3cc2s1`, the logD came to 3.13.
Still for that read-out and setting: the figure for `O=C(c1cccc([N+](=O)[O-])c1)N(Cc1ccccc1F)N1C(=O)c2ccccc2C1=O` is 4.47; for `N#Cc1nc(N2CCCC2)nc(N(c2ccccc2)c2ccccc2)n1` it is 5.38.
Same read-out and setting: to `CN1C(=CC=CC(=O)C(F)(F)F)C(C)(C)c2ccccc21` belongs 4.41.

The data set is the same for the next values; noted with them: pH 7.3.
In the case of `CCOC(=O)C1CCN(S(=O)(=O)c2nc3nc(C)cc(C)n3n2)CC1`, the logD worked out at 2.71.
Consider `Cc1cc(Br)ccc1NC(=O)CSc1nnc(N)s1`, for which the logD turned out to be 2.69.
As to `Cc1cc2ccccc2c(=O)n1CC(=O)NCC(=O)N1CCN(c2cccc(Cl)c2)CC1`, the logD worked out at 4.45.
Still for that read-out and setting: to `CC1CCCC(C)N1C(=O)CSc1nnc(-c2ccco2)n1Cc1ccccc1` (configuration not stated) belongs 4.49.
`COc1cc(OC)c(C2C3=C(CCCC3=O)Nc3ncnn32)cc1OC` (configuration not stated) showed a logD of 2.19.
`O=C(CSc1nnc(-c2ccccc2F)n1CCc1ccccc1)N1CCOCC1`: the log distribution coefficient (logD) came to 3.79.
The same measure, in the same setting: to `NC(=O)CSc1nc2c(c(=O)n1Cc1ccco1)C1(CCCCC1)Cc1ccccc1-2` belongs 5.45; to `COc1cccc(NC(=O)CSc2nnc3ccccn23)c1`, 2.45.

The data set is the same for the next values; noted with them: pH 8.0.
In turn, `CCOC(=O)c1nc(N)sc1C` yielded a logD of 1.74.

The data set is the same for the next values; noted with them: pH 10.0.
The compound `CCOC(=O)CC1=Nn2c(nnc2-c2cccs2)SC1` yielded a logD of 2.98.

Still in this data set, the particulars now being: pH 10.5.
Turning to `COc1cc(C2C(C#N)=C(N)Oc3cc(C)[nH]c(=O)c32)cc(OC)c1OC` (configuration not stated), the logD was determined as 2.55.
On the same count and under the same terms, to `CC1=NN(c2ccccc2)C(=O)C1Sc1nc(N)c(C#N)c(-c2ccc(C)cc2)c1C#N` (configuration not stated) belongs 4.99; to `COC(=O)CCNc1nc(-c2cccnc2)nc2sc3c(c12)CCCC3`, 4.69; to `CCN(CC)c1ccc(C=C2C(=O)c3ccccc3C2=O)c(OC)c1`, 5.05.
Still for that read-out and setting: to `COCCCNC(=O)c1cc(Br)c(C)c(C)c1C` belongs 2.93.

Assay in a further data set: not given
Particulars: pH 2.0.
Turning to `Cc1cc(C)n2nc(S[C@@H](C)C(=O)NCC(=O)Nc3ccc(F)c(F)c3F)nc2n1`, the log distribution coefficient (logD) was determined as 2.18.
On to `O=S(=O)(/C=C/C=C/Sc1ccccc1)c1ccccc1`, for which the logD came out at 4.03.
Same read-out and setting: the figure for `CCOC(=O)/C=c1/s/c(=C/c2c(F)cccc2F)c(=O)n1CC(=O)N(C)C` is 3.17.

Staying with this data set, now noted: pH 5.0.
In turn, `C[C@@H]1CCCCN1C(=O)CCCCC(=O)N1CCCC[C@H]1C` gave a log distribution coefficient (logD) of 3.42.
On the same count and under the same terms, the figure for `COc1cc([C@H]2NC(=O)NC(C)=C2C(=O)OC(C)C)ccc1OC(F)F` is 3.75.
Still for that read-out and setting: the figure for `CCOC(=O)c1c(NC(=O)[C@@H]2C[C@H]3CC[C@@H]2C3)sc(C(=O)N(CC)CC)c1C` is 5.05; for `CCCOc1ccc(NC(=O)C[C@H]2C(=O)N(c3ccc(Cl)cc3)C(=S)N2C2CC2)cc1` it is 5.41; for `COc1cccc(NC(=O)[C@H](OC(=O)C2=COCCO2)c2ccccc2)c1` it is 3.81.
Same read-out and setting: to `Cc1ccc(C(=O)COc2cccc(N3C(=O)[C@@H]4[C@H]5CC[C@H](C5)[C@@H]4C3=O)c2)cc1C` belongs 4.71; to `C=CCN1C(=S)N(c2ccc(CC)cc2)[C@H]2CS(=O)(=O)C[C@@H]21`, 2.86; to `O=C(N[C@H](Sc1ncccn1)C(=O)c1ccccc1)c1ccccc1`, 3.62.
Turning to `C[C@H](NC(=O)C1CC1)c1ccccc1`, the log distribution coefficient (logD) was 1.85.

Still in this data set, the particulars now being: pH 6.5.
On to `CCOC(=O)c1[nH]c(C)c(C(=O)OCC(=O)N2CCc3ccccc32)c1C`, for which the pH-dependent lipophilicity (logD) came out at 4.47.

The data set is the same for the next values; noted with them: pH 7.0.
For the compound `O=C(/C=C/c1ccccc1)Nc1ccc(N2CCN(C(=O)c3cccs3)CC2)cc1`, the log distribution coefficient (logD) was found to be 4.94.

The same data set, now with this note: pH 7.3.
Take `CC(C)[C@@H](C(=O)Nc1nc(-c2ccc(S(=O)(=O)N3CCOCC3)cc2)cs1)N1C(=O)c2ccccc2C1=O`: the logD was found to be 5.32.

The same data set, now with this note: pH 10.0.
`N#CC1=C(N)OC2=C(C(=O)C[C@H](c3ccccc3)C2)[C@H]1c1ccccc1F`: the logD is 3.07.
For `C[C@H]1CN(C(=O)c2cc(-c3ccc4c(c3)OCO4)nc3ccccc23)C[C@H](C)O1`, the log distribution coefficient (logD) came to 4.19.
The same measure, in the same setting: the figure for `COC(=O)C1=C(C)N=C(C)C(C(=O)OC)[C@@H]1c1cccc(Cl)c1` (some centres not stated) is 4.22; for `CSc1ccc([C@@H]2[C@@H]3C(=O)N(c4cccc(C(F)(F)F)c4)C(=O)[C@H]3ON2c2ccccc2)cc1` it is 5.98; for `CC(=O)c1ccc(N2CCN(C(=O)/C=C/c3ccc(C)o3)CC2)cc1` it is 4.3.

Staying with this data set, now noted: pH 10.5.
In turn, `COc1ccc([C@H]2C(C#N)=C(N)N(c3ccccc3C(F)(F)F)C3=C2C(=O)CCC3)cc1CSc1ccccn1` showed a logD of 5.45.
The same measure, in the same setting: to `CCOc1ccc(N2CN=c3s/c(=C\c4cc(OC)c(OC)cc4[N+](=O)[O-])c(=O)n3C2)cc1` belongs 4.93; to `Clc1ccc(/C=N/NC2=Cn3c(nc4ccccc43)NN2)cc1`, 4.81.
